Where two headings read alike, the source gives them in different places.
Columns and labels:
[1] = system: erythema induced by the capsaicin; assay: Protocol II dermal irritation: capsaicin-induced erythema on human forearm, infra-red reflection; assay type: in vivo; details: 0.1% capsaicin on forearm of human volunteer; candidate applied when erythema appeared 10-15 minutes later; optical reflection at 818 nanometers measured 30 minutes later; baseline control 3.5, capsaicin only 0.5
Text: A new screening method was developed to make rapid assessments on the anti-inflammatory action of the new candidates. The procedure involved the use of a natural irritant, capsaicin*, which candidate is derived from crushed hot peppers (capsicum), and measuring the amount of erythema reduction by the test candidates. Inflammatory reaction are characterzed by pain and tenderness associated with swelling and redness. Most of these clinical signs are attributed to the large influx of blood into the area. Vaso-constricting agents can reduce the amount of swelling and erythema. Hydrocortisone is, in fact, assayed by its ability to blanch the skin, which is a vasoconstrictive effect. Applying a solution of 0.1% of capsaicin to the forearm of a human volunteer will produce an erythema in less than 20 minutes, usually under five minutes. The degree of erythema is measured with an infra-red detector. An infra-red beam of light at 818 nanometers is directed into the skin over the test sie and the amount of infra-red returned to the surface by reflection indicates the amount absorbed in the skin. An untreated skin area is used as a baseline control, a capsaicin treated area is used as the negative control, and a capsaicin+hydrocortisone (a known vasoconstrictor) serves as the positive control. A positive effect means the erythema induced by the capsaicin is reduced, or is eliminated, as measured by the infra-red detector. The following reults were obtained with this evaluative protocol. The capsaicin was applied to the skin, and when erythema appeared 10-15 minutes later, the test candidate agent was applied, and the optical reflection measurements were made 30 minutes later.

[2] = system: inflammation; details: cited from earlier work
[3] = intravenous injection, radiolabelled; cited from earlier work

Row | Compound | Millivolts (reflection voltage) [1] [Millivolts] | clearance [3] | also measured
1 | CCCCCC=CCC=CCCCCCCCC(=O)OCCN1CCN(CCS(=O)(=O)O)CC1 [Compound V, Hepes-Linoleate Ester] | 3.8 | – | –
2 | CC(=O)OCCN1CCN(CCS(=O)(=O)[O-])CC1.[Na+] [Compound VI, Hepes-Acetate Ester] | 3.0 | – | –
3 | O=S(=O)(O)CCN1CCN(CCO)CC1 [HEPES, 4-(2-Hydroxyethyl)-1-piperazine-ethanesulfonic acid] | – | rapid clearance | anti-inflammatory effects compared with taurine ([2]; HEPES sodium salt and the acid, Mahon et al): greater anti-inflammatory effects; half-life compared with taurine [3]: significantly longer half-life
4 | C[C@]12CCC(=O)C=C1CC[C@@H]1[C@@H]2[C@@H](O)C[C@@]2(C)[C@H]1CC[C@]2(O)C(=O)CO [Hydrocortisone] | 5.0 | – | –
5 | NCCS(=O)(=O)O [taurine, 2-amino ethanesulfonic acid] | – | rapid clearance | anti-inflammatory activity ([2]; administered centrally): demonstrated anti-inflammatory activity; anti-inflammatory activity ([2]; administered subcutaneously or interperitoneally): not
6 | HEPES oleate, sodium salt [Compound I] | 3.7 | – | –

From patent publication US6448251B1, “Zwitterionic-fatty acid compounds having anti-inflammatory properties” (priority 1997, dated 2002)
